Results: PubChem BioAssay (NCI)
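All cell lines were grown in 96-well plates and treated with compound for 48 hours. GI50 = concentration required for 50% inhibition of growth. TGI marks complete inhibition of growth.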

Legend:
Experiment in all cases: growth of human tumour cells (NCI), 48 h
K-562 leukemia = test system: K-562 leukemia
SN12C renal = test system: SN12C renal
IGROV1 ovarian = test system: IGROV1 ovarian
ACHN renal = test system: ACHN renal
CCRF-CEM leukemia = test system: CCRF-CEM leukemia
NCI-H226 lung = test system: NCI-H226 lung
A498 renal = test system: A498 renal
OVCAR-4 ovarian = test system: OVCAR-4 ovarian
MDA-MB-435 = test system: MDA-MB-435
HOP-92 NSCLC = test system: HOP-92 NSCLC

Compound	TGI (K-562 leukemia)	TGI (SN12C renal)	TGI (IGROV1 ovarian)	TGI (ACHN renal)	TGI (CCRF-CEM leukemia)	TGI (NCI-H226 lung)	TGI (A498 renal)	TGI (OVCAR-4 ovarian)	TGI (MDA-MB-435)	TGI (HOP-92 NSCLC)	GI50 (K-562 leukemia)	GI50 (SN12C renal)	GI50 (IGROV1 ovarian)	GI50 (ACHN renal)	GI50 (CCRF-CEM leukemia)	GI50 (HOP-92 NSCLC)	GI50 (NCI-H226 lung)	GI50 (A498 renal)	GI50 (OVCAR-4 ovarian)	GI50 (MDA-MB-435)
CC(NC(=O)C1(N)CCCC1)C(=O)O (configuration not stated)	> 100 µM	> 100 µM	> 100 µM	> 100 µM	> 100 µM	> 100 µM	> 100 µM	> 100 µM	> 100 µM											
COc1ccc(/C=C/c2cnnc3ccccc23)cc1OC	> 10 µM	> 10 µM	> 10 µM	> 10 µM	> 10 µM	> 10 µM	> 10 µM	> 10 µM	> 10 µM	> 10 µM										
N=C(N)c1ccc(-c2ccc(-c3ccccc3)o2)o1	3.18 µM	10.3 µM	11.8 µM	6.73 µM	12.4 µM	24.2 µM	11.7 µM	14.5 µM	2.39 µM	4.73 µM	0.657 µM	3.12 µM	2.89 µM	2.56 µM	3.58 µM	1.85 µM	5.7 µM	3.03 µM	3.48 µM	0.999 µM
c1ccc(Oc2cnc3ccccc3n2)cc1	> 100 µM	> 100 µM	> 100 µM	> 100 µM	> 100 µM	> 100 µM	> 100 µM	> 100 µM	> 100 µM		> 100 µM	> 100 µM	74.5 µM	> 100 µM	> 100 µM		28.1 µM	14.7 µM	> 100 µM	> 100 µM
CCCCCCCCCCCC(=O)[O][Sn]([CH2]CCC)([CH2]CCC)[CH2]CCC	0.286 µM	0.221 µM	0.175 µM	0.157 µM			0.0883 µM	0.153 µM	0.15 µM	0.0728 µM	0.0364 µM	0.0767 µM	0.0547 µM	0.0596 µM		0.0119 µM		0.0241 µM	< 0.0212 µM	0.0553 µM
COc1cccc(-c2nn(C)c3sc(C(=O)NCCN4CCN(c5ccccc5F)CC4)cc23)c1	> 100 µM	> 100 µM	> 100 µM	> 100 µM	> 100 µM	> 100 µM	27.3 µM	> 100 µM	> 100 µM	> 100 µM	3.78 µM	79.5 µM	> 100 µM	19.2 µM	8.54 µM	13.4 µM	31.3 µM	1.29 µM	19.1 µM	10.5 µM
CC(=O)SC(C[N+](=O)[O-])c1ccccc1 (configuration not stated)	12.8 µM	27.3 µM	5.02 µM	8.94 µM	19.9 µM	5.72 µM	20.7 µM	5.46 µM	6.08 µM	30.4 µM										
Nc1ncnc2c1c(-c1ccc(Oc3ccccc3)cc1)nn2C[C@H]1SSC[C@H]1O	3.1 µM	4.67 µM	2.47 µM	6.75 µM	> 100 µM	3.42 µM	4.24 µM	> 100 µM	0.0736 µM	7.31 µM	0.197 µM	1.4 µM	0.455 µM	0.499 µM	0.054 µM	2.03 µM	1.43 µM	1.84 µM	1.15 µM	0.0255 µM
COc1ccc(S(=O)(=O)Nc2c(/C=C\c3cc(OC)c(OC)c(OC)c3)ccc(OC)c2O)cc1OC	> 100 µM	> 100 µM	> 100 µM	> 100 µM	> 100 µM		0.291 µM	> 100 µM	0.302 µM	> 100 µM	0.0927 µM	0.484 µM	0.358 µM	0.526 µM	0.125 µM	0.0801 µM		0.0413 µM	0.664 µM	0.03 µM
OC(c1cc2c(Cl)cc(Cl)cc2c2cc(C(F)(F)F)ccc12)C1CCCCN1 (configuration not stated)		3.38 µM	3.58 µM	3.65 µM		3.56 µM	2.9 µM	4.08 µM	4.75 µM	2.57 µM		1.8 µM	1.74 µM	1.82 µM		1.12 µM	1.73 µM	1.46 µM	2.11 µM	2.14 µM
O=C(/C=C/c1ccco1)c1cccc(Nc2nc(Nc3ccccc3)nc(Nc3ccccc3)n2)c1	> 56.1 µM	> 100 µM	> 100 µM	> 100 µM	> 24.1 µM	> 82 µM	1.77 µM	> 100 µM	> 100 µM			35 µM	2.87 µM	30.5 µM	3.07 µM		18.3 µM	0.444 µM	10.6 µM	37.7 µM
CCc1cc(Cc2cc(CC)cc(C(C)(C)C)c2O)c(O)c(C(C)(C)C)c1	13.9 µM	13.7 µM	8.05 µM	10.4 µM	> 100 µM	16.1 µM	5.39 µM	12.7 µM	7.16 µM	7.97 µM	3.37 µM	3.82 µM	2.53 µM	3.27 µM	5.16 µM	2.25 µM	4.88 µM	1.76 µM	3.56 µM	2.35 µM
COc1cc(/C=C/C(=O)c2ccc(SC)cc2)cc(OC)c1OC	16.4 µM	8.98 µM		19.5 µM	21.1 µM		17.1 µM		25.8 µM	> 100 µM	3.2 µM	3.17 µM		6.98 µM	3.37 µM	32.9 µM		0.936 µM		12.4 µM
c1ccc2c(c1)-c1nc3ccccc3cc1C2N1CCOCC1 (configuration not stated)	> 100 µM	> 100 µM	> 100 µM	> 100 µM	> 100 µM	> 100 µM	> 100 µM	> 100 µM	> 100 µM											
Nc1c2c(c(O)c3c1=C(CO)C=N3)=NCCS2=O (configuration not stated)	8.07 µM	3.57 µM	4.29 µM		13.2 µM	4.17 µM	25.3 µM	1.22 µM	3.41 µM	5.46 µM	2.81 µM	1.66 µM	1.9 µM		1.65 µM	2.67 µM	1.79 µM	12.2 µM	0.312 µM	1.86 µM
COc1ccc2c(c1)cn1c3ccc(OC)cc3[nH]c(=O)c21		1.65 µM	0.813 µM	1.69 µM		8.97 µM		4.92 µM	0.0116 µM			< 0.0232 µM	< 0.0155 µM	< 0.0226 µM			0.059 µM	< 0.0258 µM	0.0382 µM	< 0.01 µM
Cc1cccc(C)c1NC(=O)/C(CC(=O)CC(c1ccccc1)c1c(O)c2ccccc2oc1=O)=N/O (configuration not stated)		> 100 µM	> 100 µM	> 100 µM	> 100 µM	> 100 µM		> 100 µM	> 100 µM	> 100 µM										
COc1ccccc1NC(=O)C(=O)C(C#N)CC(C)(C)C=O (configuration not stated)	> 100 µM	> 100 µM	> 100 µM	> 100 µM		> 100 µM	> 100 µM	> 100 µM	> 100 µM	> 100 µM										
C=C(C=O)[C@@H]1CC=C(C=O)CC1	> 100 µM	33.9 µM	> 23.3 µM	9.65 µM		98.7 µM	77.8 µM	> 100 µM	74.3 µM	7.58 µM	1.7 µM	4.31 µM	3.19 µM	2.75 µM		2.38 µM	21.1 µM	28.8 µM	4.19 µM	4.21 µM
CC(=O)O[C@H]1CC[C@@]2(C)[C@@H](CC[C@@H]3[C@@H]2CC(=O)[C@@]2(C)[C@H]3C[C@@H]3CC(C)=CC(=O)[C@@H]32)C1	> 100 µM	> 100 µM	> 100 µM	> 100 µM	> 100 µM	> 100 µM	> 100 µM	> 100 µM	> 100 µM											
Cc1cc(=O)[nH]c2c1C(=O)C(=O)C=C2	> 100 µM	32.7 µM	> 100 µM	> 100 µM		73 µM		63.4 µM	33.2 µM	> 100 µM	34.3 µM	16.8 µM	48.6 µM	31.7 µM		77.9 µM	28.6 µM		25.6 µM	15.1 µM
Nc1c(S(=O)(=O)O)cc2c(c1Cl)C(=O)c1ccccc1C2=O	> 100 µM	> 100 µM	> 100 µM	> 100 µM	> 100 µM	> 100 µM	> 100 µM		> 100 µM	> 100 µM	> 100 µM	> 100 µM	> 100 µM	> 100 µM	> 100 µM	> 100 µM	> 100 µM	> 100 µM		> 100 µM
COc1ccc2c(C(=O)NCCCCCC(=O)O)cc3cc4c(cc3c2c1)OCO4	> 100 µM	> 100 µM		> 100 µM	> 100 µM	> 100 µM	> 100 µM		> 100 µM	> 100 µM	> 100 µM	> 100 µM		> 100 µM	> 100 µM	> 100 µM	83.5 µM	> 100 µM		> 100 µM
